target: Human Factor D (Homo sapiens (Human), UniProt P00746); test: Human Factor D Assay; format: biochemical; details: Factor D inhibition, assay of Example 10; read-out: IC5 (Stars)
In short: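 Thioester substrate Z-L-Lys-SBz (100 μM) with Ellman's reagent DTNB (100 μM) reports activity of 80 nM human serum-derived enzyme, kinetically at 405 nm over 30 min. Compound preincubated 5 min, room temperature, pH 7.5 Tris/1 M NaCl; IC50 by nonlinear fit of rates.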

Human Factor D, sequence (P00746 26-253): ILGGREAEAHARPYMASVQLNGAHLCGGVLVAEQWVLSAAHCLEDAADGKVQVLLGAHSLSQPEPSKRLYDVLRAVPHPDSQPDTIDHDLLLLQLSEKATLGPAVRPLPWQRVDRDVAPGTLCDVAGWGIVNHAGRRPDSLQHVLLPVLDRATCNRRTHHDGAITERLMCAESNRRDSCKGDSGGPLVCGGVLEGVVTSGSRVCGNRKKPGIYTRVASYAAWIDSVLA

**Q.** `CC(=O)c1nn(CC(=O)N2[C@H](C(=O)Nc3nc(Br)ccc3C)C[C@@]3(CCS(C)(=O)=O)C[C@@H]23)c2c(C)cc(-c3cnc(C)nc3)cc12` [Compound 288, (1R,3S,5R)-2-(2-(3-acetyl-7-methyl-5-(2-methylpyrimidin-5-yl)-1H-indazol-1-yl)acetyl)-N-(6-bromo-3-methylpyridin-2-yl)-5-(2-(methylsulfonyl)ethyl)-2-azabicyclo[3.1.0]hexane-3-carboxamide] was tested. Which IC50 did it give?
**A.** < 1000 nM

**Q.** How did the IC50 turn out when `CC(=O)c1nn(CC(=O)N2[C@H](C(=O)Nc3nc(Br)ccc3CN3C(C)(C)COCC3(C)C)C[C@@]3(C)C[C@@H]23)c2cnc(-c3cnc(C)nc3)cc12` [Compound 289, (1R,3S,5R)-2-(2-(3-acetyl-5-(2-methylpyrimidin-5-yl)-1H-pyrazolo[3,4-c]pyridin-1-yl)acetyl)-N-(6-bromo-3-((3,3,5,5-tetramethylmorpholino)methyl)pyridin-2-yl)-5-methyl-2-azabicyclo[3.1.0]hexane-3-carboxamide] was run?
**A.** < 1000 nM

**Q.** Which IC50 does the source give for `CC(=O)c1nn(CC(=O)N2[C@H](C(=O)Nc3nc(Br)ccc3C)C[C@@]3(CN4CCCC4)C[C@@H]23)c2c(C)cc(-c3cnc(C)nc3)cc12` [Compound 296, (1R,3S,5R)-2-(2-(3-acetyl-7-methyl-5-(2-methylpyrimidin-5-yl)-1H-indazol-1-yl)acetyl)-N-(6-bromo-3-methylpyridin-2-yl)-5-(pyrrolidin-1-ylmethyl)-2-azabicyclo[3.1.0]hexane-3-carboxamide] here?
**A.** < 1000 nM

**Q.** How did the IC50 turn out when `CC(=O)c1nn(CC(=O)N2[C@H](C(=O)Nc3nc(Br)ccc3C)C[C@@]3(CNC(C)C)C[C@@H]23)c2c(C)cc(-c3cnc(C)nc3)cc12` [Compound 297, (1R,3S,5R)-2-(2-(3-acetyl-7-methyl-5-(2-methylpyrimidin-5-yl)-1H-indazol-1-yl)acetyl)-N-(6-bromo-3-methylpyridin-2-yl)-5-((isopropylamino)methyl)-2-azabicyclo[3.1.0]hexane-3-carboxamide] was run?
**A.** < 1000 nM

**Q.** Which IC50 does the source give for `COC(=O)[C@@H]1CCCN1C[C@@]12C[C@@H](C(=O)Nc3nc(Br)ccc3C)N(C(=O)Cn3nc(C(C)=O)c4cc(-c5cnc(C)nc5)cc(C)c43)[C@@H]1C2` [Compound 298, methyl (((1R,3S,5R)-2-(2-(3-acetyl-7-methyl-5-(2-methylpyrimidin-5-yl)-1H-indazol-1-yl)acetyl)-3-((6-bromo-3-methylpyridin-2-yl)carbamoyl)-2-azabicyclo[3.1.0]hexan-5-yl)methyl)-L-prolinate] here?
**A.** < 1000 nM

**Q.** For `CC(=O)c1nn(CC(=O)N2[C@H](C(=O)Nc3nc(Br)ccc3C)C[C@@]3(CN4CCC[C@H]4C(=O)O)C[C@@H]23)c2c(C)cc(-c3cnc(C)nc3)cc12` [Compound 299, (((1R,3S,5R)-2-(2-(3-acetyl-7-methyl-5-(2-methylpyrimidin-5-yl)-1H-indazol-1-yl)acetyl)-3-((6-bromo-3-methylpyridin-2-yl)carbamoyl)-2-azabicyclo[3.1.0]hexan-5-yl)methyl)-L-proline], which IC50 is on record?
**A.** < 1000 nM

**Q.** How did the IC50 turn out when `CC(=O)c1nn(CC(=O)N2[C@H](C(=O)Nc3nc(Br)ccc3C)C[C@@]3(CNC(C)(C)C)C[C@@H]23)c2c(C)cc(-c3cnc(C)nc3)cc12` [Compound 300, (1R,3S,5R)-2-(2-(3-acetyl-7-methyl-5-(2-methylpyrimidin-5-yl)-1H-indazol-1-yl)acetyl)-N-(6-bromo-3-methylpyridin-2-yl)-5-((tert-butylamino)methyl)-2-azabicyclo[3.1.0]hexane-3-carboxamide] was run?
**A.** < 1000 nM

**Q.** Which IC50 does the source give for `CC(=O)c1nn(CC(=O)N2[C@H](C(=O)Nc3nc(Br)ccc3CN3C(C)(C)CCCC3(C)C)C[C@@]3(C)C[C@@H]23)c2ccc(-c3cnc(C)nc3)cc12` [Compound 302, (1R,3S,5R)-2-(2-(3-acetyl-5-(2-methylpyrimidin-5-yl)-1H-indazol-1-yl)acetyl)-N-(6-bromo-3-((2,2,6,6-tetramethylpiperidin-1-yl)methyl)pyridin-2-yl)-5-methyl-2-azabicyclo[3.1.0]hexane-3-carboxamide] here?
**A.** < 1000 nM

**Q.** Which IC50 does the source give for `CC(=O)c1nn(CC(=O)N2C[C@@](F)(Cn3ccnn3)C[C@H]2C(=O)Nc2nc(Br)ccc2C)c2ccc(-c3cnc(C)nc3)cc12` [Compound 304, (2S,4R)-4-((1H-1,2,3-triazol-1-yl)methyl)-1-(2-(3-acetyl-5-(2-methylpyrimidin-5-yl)-1H-indazol-1-yl)acetyl)-N-(6-bromo-3-methylpyridin-2-yl)-4-fluoropyrrolidine-2-carboxamide] here?
**A.** < 1000 nM

**Q.** `CC(=O)c1nn(CC(=O)N2[C@H](C(=O)Nc3nc(Br)ccc3C)C[C@@]3(CN4CCOCC4)C[C@@H]23)c2c(C)cc(-c3cnc(C)nc3)cc12` [Compound 305, (1R,3S,5R)-2-(2-(3-acetyl-7-methyl-5-(2-methylpyrimidin-5-yl)-1H-indazol-1-yl)acetyl)-N-(6-bromo-3-methylpyridin-2-yl)-5-(morpholinomethyl)-2-azabicyclo[3.1.0]hexane-3-carboxamide] was tested. Which IC50 did it give?
**A.** < 1000 nM

**Q.** How did the IC50 turn out when `CC(=O)c1nn(CC(=O)N2[C@H](C(=O)Nc3nc(Br)ccc3C)C[C@@]3(CN4CCC(F)(F)CC4)C[C@@H]23)c2c(C)cc(-c3cnc(C)nc3)cc12` [Compound 306, (1R,3S,5R)-2-(2-(3-acetyl-7-methyl-5-(2-methylpyrimidin-5-yl)-1H-indazol-1-yl)acetyl)-N-(6-bromo-3-methylpyridin-2-yl)-5-((4,4-difluoropiperidin-1-yl)methyl)-2-azabicyclo[3.1.0]hexane-3-carboxamide] was run?
**A.** < 1000 nM

**Q.** Which IC50 does the source give for `CC(=O)c1nn(CC(=O)N2[C@H](C(=O)Nc3nc(Br)ccc3C)C[C@@]3(CNC(C)(C)C)C[C@@H]23)c2ccc(-c3cnc(C)nc3)cc12` [Compound 307, (1R,3S,5R)-2-(2-(3-acetyl-5-(2-methylpyrimidin-5-yl)-1H-indazol-1-yl)acetyl)-N-(6-bromo-3-methylpyridin-2-yl)-5-((tert-butylamino)methyl)-2-azabicyclo[3.1.0]hexane-3-carboxamide] here?
**A.** < 1000 nM

**Q.** With `CC(=O)c1nn(CC(=O)N2[C@H](C(=O)Nc3nc(Br)ccc3CN3CC4CCC3C4)C[C@@]3(C)C[C@@H]23)c2ccc(-c3cnc(C)nc3)cc12` (stereo partly drawn) [Compound 308, (1R,3S,5R)-N-(3-(2-azabicyclo[2.2.1]heptan-2-ylmethyl)-6-bromopyridin-2-yl)-2-(2-(3-acetyl-5-(2-methylpyrimidin-5-yl)-1H-indazol-1-yl)acetyl)-5-methyl-2-azabicyclo[3.1.0]hexane-3-carboxamide] as the molecule, how does the IC50 read?
**A.** < 1000 nM

**Q.** For `CC(=O)c1nn(CC(=O)N2[C@H](C(=O)Nc3nc(Br)ccc3C)C[C@@]3(c4cn(C(C)C)nn4)C[C@@H]23)c2ccc(-c3cnc(C)nc3)cc12` [Compound 309, (1R,3S,5S)-2-(2-(3-acetyl-5-(2-methylpyrimidin-5-yl)-1H-indazol-1-yl)acetyl)-N-(6-bromo-3-methylpyridin-2-yl)-5-(1-isopropyl-1H-1,2,3-triazol-4-yl)-2-azabicyclo[3.1.0]hexane-3-carboxamide], which IC50 is on record?
**A.** < 1000 nM

**Q.** For `CC(=O)c1nn(CC(=O)N2[C@H](C(=O)Nc3nc(Br)ccc3C)C[C@@]3(Cn4cccn4)C[C@@H]23)c2ccc(-c3cnc(C)nc3)cc12` [Compound 310, (1R,3S,5R)-5-((1H-Pyrazol-1-yl)methyl)-2-(2-(3-acetyl-5-(2-methylpyrimidin-5-yl)-1H-indazol-1-yl)acetyl)-N-(6-bromo-3-methylpyridin-2-yl)-2-azabicyclo[3.1.0]hexane-3-carboxamide], which IC50 is on record?
**A.** < 1000 nM

**Q.** Which IC50 does the source give for `CC(=O)c1nn(CC(=O)N2[C@H](C(=O)Nc3nc(Br)ccc3C)C[C@@]3(Cn4ccc(C(C)(C)C)n4)C[C@@H]23)c2ccc(-c3cnc(C)nc3)cc12` [Compound 311, (1R,3S,5R)-2-(2-(3-acetyl-5-(2-methylpyrimidin-5-yl)-1H-indazol-1-yl)acetyl)-N-(6-bromo-3-methylpyridin-2-yl)-5-((3-(tert-butyl)-1H-pyrazol-1-yl)methyl)-2-azabicyclo[3.1.0]hexane-3-carboxamide] here?
**A.** < 1000 nM

**Q.** How did the IC50 turn out when `CC(=O)c1nn(CC(=O)N2[C@H](C(=O)Nc3nc(Br)ccc3C)C[C@@]3(Cn4cncn4)C[C@@H]23)c2ccc(-c3cnc(C)nc3)cc12` [Compound 312, (1R,3S,5R)-5-((1H-1,2,4-triazol-1-yl)methyl)-2-(2-(3-acetyl-5-(2-methylpyrimidin-5-yl)-1H-indazol-1-yl)acetyl)-N-(6-bromo-3-methylpyridin-2-yl)-2-azabicyclo[3.1.0]hexane-3-carboxamide] was run?
**A.** < 1000 nM

**Q.** `CC(=O)c1nn(CC(=O)N2[C@H](C(=O)Nc3nc(Br)ccc3C)C[C@@]3(Cn4cncn4)C[C@@H]23)c2cnc(-c3cnc(C)nc3)cc12` [Compound 313, (1R,3S,5R)-5-((1H-1,2,4-triazol-1-yl)methyl)-2-(2-(3-acetyl-5-(2-methylpyrimidin-5-yl)-1H-pyrazolo[3,4-c]pyridin-1-yl)acetyl)-N-(6-bromo-3-methylpyridin-2-yl)-2-azabicyclo[3.1.0]hexane-3-carboxamide] was tested. Which IC50 did it give?
**A.** < 1000 nM

**Q.** `CC(=O)c1nn(CC(=O)N2[C@H](C(=O)Nc3nc(Br)ccc3C)C[C@@]3(Cn4cnc(C)c4)C[C@@H]23)c2ccc(-c3cnc(C)nc3)cc12` [Compound 314, (1R,3S,5R)-2-(2-(3-Acetyl-5-(2-methylpyrimidin-5-yl)-1H-indazol-1-yl)acetyl)-N-(6-bromo-3-methylpyridin-2-yl)-5-((4-methyl-1H-imidazol-1-yl)methyl)-2-azabicyclo[3.1.0]hexane-3-carboxamide] was tested. Which IC50 did it give?
**A.** < 1000 nM

**Q.** For `CC(=O)c1nn(CC(=O)N2[C@@H](C(=O)Nc3nc(Br)ccc3C)C[C@@]3(Cn4cnc(C)c4)C[C@@H]23)c2ccc(-c3cnc(C)nc3)cc12` [Compound 315, (1R,3R,5R)-2-(2-(3-Acetyl-5-(2-methylpyrimidin-5-yl)-1H-indazol-1-yl)acetyl)-N-(6-bromo-3-methylpyridin-2-yl)-5-((4-methyl-1H-imidazol-1-yl)methyl)-2-azabicyclo[3.1.0]hexane-3-carboxamide], which IC50 is on record?
**A.** 1000 to 10000 nM
